This is an account of results in PubChem BioAssay AID1189 (EPA DSSTox, 2008).

The structures appear in SMILES notation. Calls of active or inactive are those of the source.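 The calls were made as follows: active = a tumor-causing dose value with its tumor site reported for any sex and species group of a rodent or other animal cancer study; inconclusive = only studies judged inadequate by the national testing program; inactive = tested in at least one study, none positive.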

This series can be described thus: DSSTox (CPDBAS) Carcinogenic Potency Database Summary SingleCellCall Results. The following applies: animal chronic carcinogenicity bioassays, CPDB summary call. The text has this: The Carcinogenic Potency Database (CPDB) is a unique and widely used international resource of the results of over 6500 chronic, long-term animal cancer tests on over 1500 chemical substances. The CPDB provides easy access to the bioassay literature, with qualitative and quantitative analyses of both positive and negative experiments that have been published over the past 50 years in the general literature and by the National Cancer Institute/National Toxicology Program. The CPDB standardizes the diverse literature of cancer bioassays that vary widely in protocol, histopathological examination and nomenclature, and in the published author's choices of what information to provide in their papers. Results are reported in the CPDB for tests in rats, mice, hamsters, dogs, and nonhuman primates, and are based on the most positive result among all experiments for each sex-species. The DSSTox CPDBAS (all species) file incorporates data from the CPDB Summary Tables for the full list of over 1500 chemical substances tested in at least one species. A summary SingleCellCall, based on experimental bioassay results of one or more species, is provided for the entire DSSTox CPDBAS file (see Source URL).
An assignment of categorical carcinogenic activity based on minimal evidence for or against activity. […] Associated TD50 values and tumor site details for the relevant species/sex experiment supporting this overall CPDBAS SingleSiteCall are provided in the full CPDBAS DSSTox file (see Comment) and the corresponding CPDBAS Species Bioassay in PubChem.
`NC(=S)Nc1ccccc1`: the outcome was inactive.
In the case of `O=S(O)S(=O)(=O)O`, the result was inactive.
Consider `CC(I)C1OCC(CO)O1` (stereo not drawn), for which the result was active.
Take `c1ccc(C2CO2)cc1` (stereo not drawn): the result was active.
`CC(=O)OC(OC(C)=O)c1ccc([N+](=O)[O-])o1`: the result was inactive.
Take `O=S1(=O)CCCO1`: the result was active.
`CC1=NN(c2ccccc2)C(=O)C1`: the outcome was inactive.
Consider `CCC(CC)C(=O)NC(N)=O`, for which the outcome was “inactive; active”.
For the compound `N#Cc1ccc(C2CCCc3cncn32)cc1` (stereo not drawn), the outcome is “inactive; active”.
In the case of `CC(O)COC(C)(C)C` (stereo not drawn), the outcome was active.
Take `[N]=O`: the outcome was inactive.
Turning to `CC(C)NCC(O)COc1ccc(CC(N)=O)cc1` (stereo not drawn), the outcome was “inactive; active”.
As for `O=[N+]([O-])OCC(CO[N+](=O)[O-])O[N+](=O)[O-]`, the result was active.
On to `O=C1CN=C(c2ccccc2)c2cc(Cl)ccc2N1CC1CC1`, for which the outcome was inactive.
With `C=COC(N)=O`, the outcome was “active; inactive”.
For the compound `Cc1noc(NS(=O)(=O)c2ccc(N)cc2)c1C`, the result was inactive.
As to `O=[As]O`, the result was inactive.
Consider `CC(=O)Nc1cccc2c1-c1ccccc1C2`, for which the result was inactive.
On to `Cc1ccc2c(-c3ccccc3)nc(=O)n(C(C)C)c2c1`, for which the outcome was inactive.
As for `CN1C(=O)C[C@@H](C(=O)N[C@@H](Cc2cnc[nH]2)C(=O)N2CCC[C@H]2C(N)=O)NC1=O`, the outcome is “inactive; active”.
As to `CN(C)C(=S)[S-].CN(C)C(=S)[S-].[Cu+2]`, the result was inactive.
The same measure for `COc1cc2c(c3oc(=O)c4c(c13)CCOC4=O)C1C=COC1O2` (stereo not drawn): “active”.
The same measure for `CC(C)(C)c1cc(C(C)(C)C)c(O)c(C(C)(C)C)c1`: “inactive”; for `CN(CCc1ccccc1)N=O`: “active”; for `Cl[C@H]1OCCO[C@@H]1Cl`: “inactive”.
Turning to `ClC#CCl`, the outcome was active.
As for `Nc1ccc2c(c1)C(=O)c1ccccc1C2=O`, the outcome was active.
The same measure for `CN(N=O)C(=O)c1c(N(C)N=O)ncn1C`: “active”.
Consider `[Cl-].[Hg+]`, for which the outcome was “inactive; active”.
The same measure for `O=[N+]([O-])O`: “inactive; active”; for `C=CC1CC=CCC1` (stereo not drawn): “active”; for `CC(C)(C)NC(=O)[C@H]1CC[C@H]2[C@@H]3CC[C@H]4NC(=O)C=C[C@]4(C)[C@H]3CC[C@]12C`: “active; inactive”.
For `Cc1ccc(C)c(N)c1`, the outcome was active.
The same measure for `NNC(N)=S`: “inactive”.
`CN(C)c1ccc(C(=O)c2ccc(N(C)C)cc2)cc1`: the result was active.
The same measure for `Nc1ccc([N+](=O)[O-])cc1`: “inactive; active”; for `O[C@H]([C@H](O)[C@@H](O)CBr)[C@H](O)CBr`: “active; inactive”.
As for `CN(C)C(=O)Nc1ccc(Cl)cc1`, the outcome was active.
In the case of `COc1ccccc1[N+](=O)[O-]`, the result was active.
On to `c1ccoc1`, for which the outcome was “active; inactive”.
`NC(=O)N/N=C/c1ccco1`: the result was inactive.
On to `CCCCNN`, for which the outcome was active.
Regarding `O=c1oc2c(O)c(O)cc3c(=O)oc4c(O)c(O)cc1c4c23`, the outcome was inactive.
For `c1ccc2occc2c1`, the outcome is “active; inactive”.
`O=C1C=CC(=O)C=C1`: the result was active.
The same measure for `C=Cc1cccc(C)c1`: “inactive; active”; for `Nc1nc(=S)c2ncn([C@H]3C[C@H](O)[C@@H](CO)O3)c2[nH]1`: “active”; for `C=Cc1ccccc1`: “active”.
With `O=C(O)COc1cc(Cl)c(Cl)cc1Cl`, the result was inactive.
For `O=C1c2ccccc2C(=O)N1SC(Cl)(Cl)Cl`, the outcome was active.
Regarding `CCCCCN(N=O)C(=N)N[N+](=O)[O-]`, the result was inactive.
Consider `O=[N+]([O-])c1ccc2c(c1)Cc1ccccc1-2`, for which the result was active.
With `O=[N+]([O-])c1ccc2nc[nH]c2c1`, the outcome was active.
Regarding `O=c1[nH]cc(F)c(=O)[nH]1`, the outcome is “active; inactive”.
For `CN(CCCO)N=O`, the outcome was “active; inactive”.
On to `Clc1cccc(-c2cc(Cl)cc(Cl)c2)c1`, for which the outcome was active.
The same measure for `CCCCNC(=O)N(CCCC)N=O`: “active”.
On to `CN(C)c1ccc(C(=C2C=CC(=[N+](C)C)C=C2)c2ccc(N(C)C)cc2)cc1`, for which the outcome is “active; inactive”.
Regarding `C1CNCCN1`, the result was inactive.
In the case of `Nc1ccc(N=Nc2ccc(N)cc2)cc1`, the outcome is “inactive; active”.
On to `OCc1ccccc1`, for which the outcome was inactive.
The same measure for `ClCOCCOCCl`: “active”.
As to `CCN(CC)C(=S)S[Te](SC(=S)N(CC)CC)(SC(=S)N(CC)CC)SC(=S)N(CC)CC`, the outcome was inactive.
For the compound `Cc1cc(N=Nc2c(O)ccc3ccccc23)c(S(=O)(=O)O)cc1Cl`, the outcome is “active; inactive”.
Take `C=CC#N`: the outcome was active.
For the compound `CCCC[N+](=O)[O-]`, the outcome was inactive.
Turning to `C=CCOC(=O)CC(C)C`, the outcome was active.
For the compound `CN(N=O)c1ccc(F)cc1`, the result was active.
For the compound `CCC[C@@H]1O[C@@H]2C[C@H]3[C@@H]4CCC5=CC(=O)C=C[C@]5(C)[C@H]4[C@@H](O)C[C@]3(C)[C@]2(C(=O)CO)O1`, the outcome is “active; inactive”.
As for `C=CCCl`, the outcome was “inactive; active”.
`CC(N)=S`: the result was active.
Regarding `Cn1c(N)nc2ncc(-c3ccccc3)cc21`, the result was active.
For the compound `c1ccc2[nH]c(-c3cscn3)nc2c1`, the outcome was inactive.
On to `O=C(O)c1cc(=O)[nH]c(=O)[nH]1`, for which the result was inactive.
For the compound `O=Nc1ccc(Nc2ccccc2)cc1`, the outcome was “active; inactive”.
The same measure for `C[C@](N)(Cc1ccc(O)c(O)c1)C(=O)O`: “inactive”; for `Cc1cc(N)ccc1N`: “inactive”; for `CCC(Br)(CC)C(=O)NC(N)=O`: “inactive”.
The same measure for `OCCN(CCO)C(=S)S`: “active”; for `CCCCOC(=O)c1ccc(O)cc1`: “inactive; active”.
For the compound `Nc1ccccc1C(=O)O`, the outcome is “inactive; active”.
For the compound `CCCCCl`, the outcome was inactive.
Take `Cc1ccc(N)c(C)c1`: the result was active.
The same measure for `O=NN1CCCCC1c1cccnc1` (stereo not drawn): “active”; for `C=C(C)[C@H]1CC=C(C)C(=O)C1`: “inactive; active”; for `Cn1c(=O)c2c(ncn2C)n(C)c1=O`: “inactive”.
As to `ClC(Cl)Cl`, the outcome was active.
As for `Cc1ccc(C)c(OCCCC(C)(C)C(=O)O)c1`, the outcome is “active; inactive”.
For the compound `CC(=O)O[C@@H]1[C@@H](O)C2OC3C=C(C)C(=O)C(O)[C@@]3(CO)[C@]1(C)[C@]21CO1` (stereo partly drawn), the result was inactive.
The same measure for `O=C(NCC1CCCCN1)c1cc(OCC(F)(F)F)ccc1OCC(F)(F)F` (stereo not drawn): “inactive”; for `Nc1ccc(NCCO)c([N+](=O)[O-])c1`: “inactive”; for `COC1=CC(=O)C[C@@H](C)[C@]12Oc1c(Cl)c(OC)cc(OC)c1C2=O`: “active”.
Take `CC(O)c1ccccc1` (stereo not drawn): the outcome is “active; inactive”.
The same measure for `CCCCCC`: “active”.
With `O=S(=O)(O)c1ccc(N=Nc2c(O)ccc3cc(S(=O)(=O)O)ccc23)cc1`, the outcome was inactive.
`COc1nn(CSP(=S)(OC)OC)c(=O)s1`: the result was active.
Take `O=NN1CSCSC1`: the outcome was inactive.
The same measure for `Cc1ccc(OP(=O)(Oc2ccc(C)cc2)Oc2ccc(C)cc2)cc1`: “inactive”.
Turning to `O=C1c2ccccc2C(=O)c2c(O)cccc21`, the result was active.
For `O=NN1CCC(O)C1` (stereo not drawn), the outcome was active.
The same measure for `C[C@]12CC[C@H]3C(=CCc4cc(OS(=O)(=O)O)ccc43)[C@@H]1CCC2=O`: “inactive; active”; for `C/C=N/N(C)C=O`: “active; inactive”.
For the compound `O=S(=O)(c1ccc(Cl)cc1)c1cc(Cl)c(Cl)cc1Cl`, the result was inactive.
As for `CN(C)CNc1nnc(/C=C/c2ccc([N+](=O)[O-])o2)o1`, the result was active.
The same measure for `Cc1ccccc1N`: “active”; for `CC1=C[C@H]2[C@@]3(O)[C@H](C)[C@@H](O)[C@]4(O)[C@H]([C@@H]3C=C(CO)C[C@]2(O)C1=O)C4(C)C`: “active”; for `CN(C)[C@@H]1C(=O)C(C(N)=O)=C(O)[C@@]2(O)C(=O)C3=C(O)c4c(O)cccc4[C@@](C)(O)[C@H]3C[C@@H]12`: “inactive”.
Regarding `NNC(=O)c1ccncc1`, the outcome is “active; inactive”.
